According to patent publication US20230100844A1, “IBOGAINE COMBINATION TREATMENT” (ATAI Life Sciences AG, priority 2021, published 2023):
Like-named read-outs stand apart in the source and are kept apart here.

Tests used:
[1] = in vivo; cited from earlier work
CYP2D6 = biological target: T1, CYP2D6 (Homo sapiens, UniProt P10635); settings: humans; cited from earlier work
T1 construct: host or cells: human subjects (endogenous enzyme of gut wall and liver)

[2] = cited from earlier work
[3] = animals, meta-analysis; cited from earlier work
[4] = single oral 8-12 mg/kg HCl; cited from earlier work
[5] = single oral 10 mg/kg ibogaine, cited from earlier work
[6] = cited from earlier work; for plasma exposures with chronic paroxetine: CYP2D6 extensive metabolizers, paroxetine 10-20 mg, single ibogaine 20 mg (about 0.3 mg/kg); for time out to which ibogaine plasma exposures are detectable: single ibogaine 20 mg
[7] = single oral administration, humans; cited from earlier work
[8] = oral administration; cited from earlier work
[9] = in vivo; cited from earlier work; remark: listed apart in the source
[10] = Nonclinical proof-of-concept PD study: drug self-administration after CYP2D6 inhibitor plus ibogaine; format: in vivo, rats and/or nonhuman primates; settings: single dose CYP2D6 inhibitor followed by single dose ibogaine
Protocol: Nonclinical proof-of-concept PD studies (rats and/or nonhuman primates):
Dose(s) of CYP2D6 inhibitor based on prior PK studies in the same species are tested. Intravenous drug self-administration studies involve training the animal to emit a response (e.g., lever press) for a non-drug reinforcer (e.g., food) under specific stimulus conditions in the test chamber. Then, the animal undergoes aseptic surgery to place a chronically indwelling intravenous cannula that is connected to a drug infusion system within the test chamber. After surgical recovery, the stimulus conditions in the test chamber now signal the availability of a drug reinforcer (e.g., morphine or cocaine), and lever pressing results in an intravenous infusion of the available drug during daily session. For studies of oral self-administration (e.g., ethanol), animals are trained to self-administer the drug using a lever paradigm (e.g., in which pressing of the lever results in delivery of the drug solution into a drinking cup) or a two-bottle choice […] paradigm (e.g., in which animals are allowed to drink for 24 hours from one bottle containing a drug solution or another bottle containing water). During a test session, vehicle or a dose of CYP2D6 inhibitor is administered prior to a dose of ibogaine and then, responses on the drug-associated lever or the volume of drug solution consumed are measured.

T1 sequence (P10635 whole entry): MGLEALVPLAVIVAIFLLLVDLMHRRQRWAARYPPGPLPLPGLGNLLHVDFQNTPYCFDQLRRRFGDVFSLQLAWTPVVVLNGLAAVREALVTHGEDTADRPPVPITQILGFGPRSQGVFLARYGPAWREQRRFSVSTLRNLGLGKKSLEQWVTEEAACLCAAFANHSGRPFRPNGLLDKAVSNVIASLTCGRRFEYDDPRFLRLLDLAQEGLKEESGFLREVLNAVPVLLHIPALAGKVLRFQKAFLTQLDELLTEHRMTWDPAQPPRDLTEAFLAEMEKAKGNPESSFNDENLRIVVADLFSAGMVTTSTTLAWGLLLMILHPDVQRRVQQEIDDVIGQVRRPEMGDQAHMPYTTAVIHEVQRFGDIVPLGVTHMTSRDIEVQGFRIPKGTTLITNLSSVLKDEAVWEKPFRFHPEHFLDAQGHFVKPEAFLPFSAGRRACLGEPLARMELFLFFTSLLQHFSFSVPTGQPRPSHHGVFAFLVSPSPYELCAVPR

CNCCC(Oc1ccc(C(F)(F)F)cc1)c1ccccc1 (stereo not shown) [Fluoxetine, fluoxetine]
half-life [1]: long half-life (days)

C=C[C@H]1C[N@@]2CC[C@H]1C[C@@H]2[C@@H](O)c1ccnc2ccc(OC)cc12 [Quinidine, quinidine]
in vivo CYP2D6 inhibition (CYP2D6): can inhibit the metabolism of the CYP2D6 substrate debrisoquine in vivo

CC(NC(C)(C)C)C(=O)c1cccc(Cl)c1 (stereo not shown) [bupropion]
single-dose half-life ([2]; single dose): 10 to 15 h

C[C@H]1NC(C)(C)CO[C@]1(O)c1cccc(Cl)c1 [hydroxybupropion]
half-life of metabolite ([2]; bupropion metabolites that also inhibit CYP2D6): 22 to 25 h

CCC1CC2CC3c4[nH]c5ccc(OC)cc5c4CCN(C2)C13 (stereo not shown) [ibogaine, Ibogaine]
self-administration of drugs (opiates, cocaine, ethanol) [3]: reduced self-administration of several drugs | opioid withdrawal signs, craving and mood [4]: reduced opioid withdrawal signs and craving and increased mood | absorbed ibogaine eliminated by 24 hours post dose ([5]; CYP2D6 extensive metabolizers): > 90% | exposure in CYP2D6 poor metabolizers compared to extensive metabolizers [5]: modestly increased | plasma exposures with chronic paroxetine [6]: increased plasma exposures | time out to which ibogaine plasma exposures are detectable ([6]; chronic paroxetine 10-20 mg): 72 h | time out to which ibogaine plasma exposures are detectable ([6]; chronic placebo treatment): < 4 h | time blood concentrations were detectable [7]: about 24 h | time to peak blood concentration [7]: peaked within a couple of hours | cardiac QT interval [8]: associated with cardiac QT interval prolongation | time within which visualizations and perceptual changes subside [9]: 6 to 8 h | therapeutic-like effects (reduction of drug self-administration) with CYP2D6 inhibitor pretreatment [10]: increases ibogaine's therapeutic-like effects

CC[C@H]1C[C@H]2C[C@H]3c4[nH]c5ccc(O)cc5c4CCN(C2)[C@@H]13 [noribogaine]
Cmax in blood ([5]; CYP2D6 extensive metabolizers): in the same range as the parent drug | concentrations at 24 hours ([5]; CYP2D6 extensive metabolizers): remained elevated | exposure in CYP2D6 poor metabolizers compared to extensive metabolizers [5]: markedly decreased | plasma exposures with chronic paroxetine [6]: decreased plasma exposures | time blood concentrations were detectable [7]: detectable for a longer duration | time to peak blood concentration [7]: peaked later
